The results in this text go back to patent US5491172A, “N-acyl sulfamic acid esters (or thioesters), N-acyl sulfonamides, and N-sulfonyl carbamic acid esters (or thioesters) as hypercholesterolemic agents” (Warner-Lambert Company, priority 1994, dated 1996).

A short description of experiment [1]: in vivo screen APCC: blood cholesterol in rats fed overnight a high fat, high cholesterol (PCC) diet. To be noted: male Sprague-Dawley rats, dosed at 4 PM, PCC diet with 0.5% cholic acid overnight, blood sampled 8 AM, dose not given. The text has this:
In one in vivo screen designated APCC, male Sprague-Dawley rats (200 to 225 g) were randomly divided into treatment groups and dosed at 4 PM with either vehicle (CMC/Tween) or suspensions of compounds in vehicle. The normal chow diet was then replaced with a high fat, high cholesterol diet (designated PCC) containing 0.5% cholic acid. The rats consumed this diet ad libitum during the night and were sacrificed at 8 AM to obtain blood samples for cholesterol analysis using standard procedures. Statistical differences between mean cholesterol values for the same vehicle were determined using analysis of variance followed by Fisher's least significant test.

Experiment [2] has as its target acyl-CoA:cholesterol acyltransferase (ACAT). In words: in vitro ACAT inhibition (LAI): radiolabeled cholesterol oleate formed from radiolabeled oleic acid in rat liver microsomes. It is filed as biochemical. To be noted: concentration required to inhibit enzyme activity by 50%. The procedure:
The ability of representative compounds of the present invention to inhibit ACAT was measured using an in vitro test more fully described in Field FJ, Salone RG, Biochemica et Biophysica, 1982;712:557-570. The test assesses the ability of a test compound to inhibit the acylation of cholesterol by oleic acid by measuring the amount of radiolabeled cholesterol oleate formed from radiolabeled oleic acid in a tissue preparation containing rat liver microsomes.

As usually defined, the IC50 is the concentration at which inhibition is half-maximal. For the molecule `CC(C)c1cccc(C(C)C)c1OS(=O)(=O)NC(=O)C(c1ccccc1)C1CCCCC1` (stereo not drawn) [Example 33, sulfamic acid(cyclohexylphenylacetyl)-2,6-bis(1-methylethyl)phenyl ester], the “% Change (mg/dl) in cholesterol” value in experiment [1] is given as -63%. The molecule further returned an IC50 in experiment [2] of 9.3 µM.
With `CC(C)c1cccc(C(C)C)c1OS(=O)(=O)NC(=O)C(C)(c1ccccc1)c1ccccc1` [Example 34, sulfamic acid(1-oxo-2,2-diphenylpropyl)-2,6-bis(1-methylethyl)phenyl ester], the “% Change (mg/dl) in cholesterol” value in experiment [1] is recorded as -67%. For the same molecule, the IC50 in experiment [2] was 7.7 µM.
The corresponding values for `CC(C)c1cccc(C(C)C)c1OS(=O)(=O)NC(=O)C(c1ccc(Cl)cc1)c1ccc(Cl)cc1` [Example 35, sulfamic acid[bis-(4-chlorophenyl)acetyl]-2,6-bis(1-methylethyl)phenyl ester] are -9% and 8.9 µM.
The matching figures for `CC(C)c1cccc(C(C)C)c1OS(=O)(=O)NC(=O)C1c2ccccc2Oc2ccccc21` [Example 36, sulfamic acid[(9H-xanthen-9-yl)carbonyl]-2,6-bis(1-methylethyl)phenyl ester]: -6% and 22 µM.
In the case of `CC(C)c1cccc(C(C)C)c1OS(=O)(=O)NC(=O)C1c2ccccc2-c2ccccc21` [Example 37, sulfamic acid[(9H-fluoren-9yl)carbonyl]-2,6-bis(1-methylethyl)phenyl ester], the “% Change (mg/dl) in cholesterol” value in experiment [1] is on record as -50%. In experiment [2], this molecule showed a half-maximal inhibitory concentration (IC50) of 16 µM.
Take `CC(C)c1cccc(C(C)C)c1OS(=O)(=O)NC(=O)CCc1ccccc1` [Example 38, sulfamic acid(1-oxo-3-phenylpropyl)-2,6-bis(1-methylethyl)phenyl ester]: the “% Change (mg/dl) in cholesterol” value in experiment [1] is reported as -16%. In addition, the 50% inhibitory concentration (IC50) in experiment [2] was determined as 31 µM.
As to `CC(C)c1cccc(C(C)C)c1OS(=O)(=O)NC(=O)C(Br)c1ccccc1` (stereo not drawn) [Example 39, sulfamic acid[bromo(phenyl)acetyl]-2,6l-bis(1-methylethyl)phenyl ester], the “% Change (mg/dl) in cholesterol” value in experiment [1] is “+5%”. In addition, in experiment [2], the midpoint of inhibition, the IC50, lay at 32 µM.
The corresponding values for `CC(C)c1cc(C(C)C)c(C=CC(=O)NS(=O)(=O)Oc2c(C(C)C)cccc2C(C)C)c(C(C)C)c1` [Example 40, sulfamic acid[1-oxo-3-[2,4,6-tris-(1-methylethyl)phenyl]-2-propenyl]-2,6-bis-(1-methylethyl)phenyl ester] are -54% and 32 µM.
The matching figures for `CC(C)c1cc(C(C)C)c(CCC(=O)NS(=O)(=O)Oc2c(C(C)C)cccc2C(C)C)c(C(C)C)c1` [Example 41, sulfamic acid[1-oxo-3-[2,4,6-tris(1-methylethyl)phenyl]propyl]-2,6-bis(1-methylethyl)phenyl ester]: -73% and 28 µM.
On to `CC(=O)OC(C(=O)NS(=O)(=O)Oc1c(C(C)C)cccc1C(C)C)c1c(C(C)C)cc(C(C)C)cc1C(C)C` (stereo not drawn) [Example 42, sulfamic acid[(acetyloxy)[2,4,6-tris(1-methylethyl)phenyl]acetyl]-2,6-bis(1-methylethyl)phenyl ester], for which the “% Change (mg/dl) in cholesterol” value in experiment [1] was -25%. In experiment [2], this molecule yielded an IC50 of 7 µM.
The matching figures for `CC(C)c1cc(C(C)C)c(C(O)C(=O)NS(=O)(=O)Oc2c(C(C)C)cccc2C(C)C)c(C(C)C)c1` (stereo not drawn) [Example 43, sulfamic acid[hydroxy[2,4,6-tris(1-methylethyl)phenyl]acetyl]-2,6-bis(1-methylethyl)phenyl ester]: -45% and 31 µM.
The matching figures for `CC(C)c1cc(C(C)C)c(C(F)C(=O)NS(=O)(=O)Oc2c(C(C)C)cccc2C(C)C)c(C(C)C)c1` (stereo not drawn) [Example 44, sulfamic acid[fluoro[2,4,6-tris(1-methylethyl)phenyl]acetyl]-2,6-bis(1-methylethyl)phenyl ester]: -74% and 9.4 µM.
